In patent US20210379056A1, “SUBSTITUTED PYRAZOLE FUSED RING DERIVATIVE, PREPARATION METHOD THEREFOR, AND APPLICATION THEREOF” (Applied Pharmaceutical Science, Inc., priority 2018, published 2021):
Structures can show the parent of a compound that is named as a salt.

Tests used:
Ret wt = target: T1, Ret wt (Homo sapiens, UniProt P07949); test: HTRF kinase activity test, RET wild type; type: biochemical; conditions: Table 3; read-out: RET Enzyme (wild type) IC50
T1 construct: purchased Invitrogen PV3082
Method: This test combined peptide substrates and a single proprietary monoclonal antibody with HTRF technology, which was a highly sensitive and stable technology for detecting molecular interactions of proteins. The enzyme phosphorylates the substrate, then the Eu-labeled antibody binds to the phosphorylated substrate, and streptavidin-XL665 binds to all substrates. The TR-FRET signal was generated by the HTRF principle. […] Based on this, the inhibitory effect was evaluated.
(§1) The other compounds were diluted 3-fold gradiently with DMSO from the 10 mM stock solution to a total of 10 concentrations respectively.
(§2) Adding 4 volumes of distilled water to 1 volume of enzyme buffer 5×; 5 mM MgCl2; 1 mM DTT.
(§3) b) centrifuging the compound plate for 1 minute at 1000 g.
(§4) c) sealing the test board.
(§5) f) adding 4 μl of 1× kinase buffer to each well of the test plate, centrifuging the sample plate at 1000 g for 30 seconds, and placing it at room temperature for 10 minutes.
(§6) g) preparing a solution of 5× TK-substrate-biotin ([…]) in kinase buffer and 5×ATP (50 μM) in kinase buffer respectively.
(§7) h) starting the reaction by adding 2 μl STK-substrate-biotin and 2 μl ATP (prepared in the step g).
(§8) i) centrifuging the sample plate for 30 seconds at 1000 g. Sealing the test board and placing it at room temperature for 30 minutes.
(§9) ) centrifuging at 1000 g for 30 seconds and placing it at room temperature for 1 hour.
(§10) The inhibition rate % was calculated as follows:
(§11) Inhibition rate %=[1−(fluorescence signal value of test compound−fluorescence signal value of positive control)/(average ratio of negative control−average ratio of positive control)]*100%
(§12) Ratio: generated from the measured fluorescence signal value
(§13) The average ratio of the positive control is the average ratio of the positive control (200 nM AT13148) in the sample plate;
(§14) The average ratio of negative controls is the average ratio of negative controls (0.1% DMSO) in the sample plate.
(§15) GraphPad 6.0 was used to fit the logarithm of the % inhibition rate and the compound concentration into a nonlinear regression (dose response−variable slope) to calculate the IC50 value.

RET (V804M) = target: T2, RET (V804M) (Homo sapiens, UniProt P07949, V804M); test: HTRF kinase activity test, RET V804M; type: biochemical; conditions: Table 3; read-out: RET Enzyme (V804M) IC50
T2 construct: purchased Signalchem R02-12GG
Method: This test combined peptide substrates and a single proprietary monoclonal antibody with HTRF technology, which was a highly sensitive and stable technology for detecting molecular interactions of proteins. The enzyme phosphorylates the substrate, then the Eu-labeled antibody binds to the phosphorylated substrate, and streptavidin-XL665 binds to all substrates. The TR-FRET signal was generated by the HTRF principle. Once the inhibitor (test compound) was added, a weaker TR-FRET signal is obtained. Based on this, the inhibitory effect was evaluated.
as §1, §2
a) Transferring 10 nl of the compound dilution (prepared in 5.2) to each well of the test plate (784075, Greiner);
as §3, §4
d) preparing 5×Ret wt (0.2 ng/μl) and 5×Ret V804L (0.5 ng/μl)/5×Ret V804M (0.5 ng/μl) in 1× kinase buffer respectively.
e) adding 2 μl of 5×Ret wt or 2 μl of Ret V804L/RET V804M to a 384-well test plate (784075, Greiner).
as §5, §6, §7, §8
j) preparing 4×Sa-XL 665 (250 nM) in HTRF detection buffer.
k) adding 5 μl of Sa-XL 665 and 5 μl of TK-antibody-Cryptate (prepared in the step i) to each well of the test plate.
as §9
m) reading the fluorescence signal values at 615 nm (Cryptate) and 665 nm (XL665) on the Envision 2104 plate reader.
Calculating the ratio of each hole (665 nm/615 nm).
as §10, §11, §12, §13, §14, §15

TT Cell = test: Cell inhibitory activity test (CCK8); type: cell-based; conditions: Homo sapiens, TT, Table 3, 72 hours incubation
Method: Cell Inhibitory Activity Test
1. preparing 90 μl of cell suspension in a 96-well plate with 4000 cells/well. Pre-incubating the culture plate in an incubator for 24 hours (37° C., 5% CO2).
2. adding 10 μl of test compounds of different concentrations to each well of cells, and each compound has multiple wells.
3. incubating the culture plate in the incubator for 72 hours.
4. adding 10 μl of CCK8 solution to each well (be careful not to generate bubbles in the well, otherwise they would affect the reading of the OD value).
5. incubating the culture plate in the incubator for 1-2 hours.
6. measuring the absorbance at 450 nm with a microplate reader.
7. according to the compound concentration and absorbance value, GraphpadPrism software was used to calculate the IC50 of each compound.

[1] = tested on: RET wild-type, mutant and/or fusion-type; test: Overall statement on RET inhibitory activity (summary of Table 3); conditions: statement in words summarising Table 3
Excerpt: As shown in the above table, the example compounds of the present disclosure have improved inhibitory activity against RET wild-type, mutant and/or fusion-type.

T2 sequence (P07949 29-1114 V804M): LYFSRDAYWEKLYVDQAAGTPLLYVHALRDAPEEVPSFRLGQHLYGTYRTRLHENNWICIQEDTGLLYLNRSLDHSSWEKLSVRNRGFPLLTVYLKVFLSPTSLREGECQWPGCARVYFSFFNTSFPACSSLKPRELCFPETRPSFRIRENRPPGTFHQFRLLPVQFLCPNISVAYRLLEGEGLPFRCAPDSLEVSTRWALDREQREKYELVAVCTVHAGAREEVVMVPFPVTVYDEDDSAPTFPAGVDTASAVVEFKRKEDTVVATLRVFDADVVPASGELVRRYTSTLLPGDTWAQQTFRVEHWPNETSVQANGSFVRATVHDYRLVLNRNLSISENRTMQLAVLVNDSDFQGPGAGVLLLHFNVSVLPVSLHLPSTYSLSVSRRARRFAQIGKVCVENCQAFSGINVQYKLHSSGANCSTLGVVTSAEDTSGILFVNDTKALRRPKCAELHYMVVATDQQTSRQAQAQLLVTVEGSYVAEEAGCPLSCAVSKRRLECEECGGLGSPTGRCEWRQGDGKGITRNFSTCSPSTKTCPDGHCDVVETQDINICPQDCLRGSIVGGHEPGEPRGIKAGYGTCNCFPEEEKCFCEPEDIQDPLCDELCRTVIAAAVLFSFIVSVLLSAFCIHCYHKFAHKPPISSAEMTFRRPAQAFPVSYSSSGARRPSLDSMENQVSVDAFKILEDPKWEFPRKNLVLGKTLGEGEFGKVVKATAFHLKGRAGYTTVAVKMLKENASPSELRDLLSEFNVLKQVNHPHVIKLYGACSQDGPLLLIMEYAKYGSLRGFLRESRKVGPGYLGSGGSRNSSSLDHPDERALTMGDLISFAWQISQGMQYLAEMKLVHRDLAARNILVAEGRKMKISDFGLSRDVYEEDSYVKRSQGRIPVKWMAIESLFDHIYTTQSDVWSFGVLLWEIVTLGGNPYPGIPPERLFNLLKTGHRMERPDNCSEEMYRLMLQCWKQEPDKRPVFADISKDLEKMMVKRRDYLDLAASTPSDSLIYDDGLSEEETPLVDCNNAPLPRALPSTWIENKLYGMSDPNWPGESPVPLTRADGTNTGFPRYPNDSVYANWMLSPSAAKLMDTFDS
T1 sequence (P07949 29-1114): as the sequence (P07949 29-1114 V804M) above, with M776V counted along it

SMILES: COc1ccc(CN2C3CC2CN(c2cnc(-c4cc(OC[C@@H]5CNCCO5)cn5nc(N)c(C#N)c45)cn2)C3)cn1 [APS087, 2-amino-4-(5-(6-((6-methoxypyridin-3-yl)methyl)-3,6-diazabicyclo[3.1.1]heptan-3-yl)pyrazin-2-yl)-6-(((S)-morpholin-2-yl)methoxy)pyrazolo[1,5-a]pyridine-3-carbonitrile trifluoroacetate]
- IC50 (Ret wt): < 1 nM
- IC50 (RET (V804M)): < 1 nM
- IC50 (TT Cell): < 1 nM
- inhibitory activity against RET wild-type, mutant and/or fusion-type [1]: excellent activity

SMILES: COc1ccc(CN2C3CC2CN(c2ccc(-c4cc(OCC(C)(C)O)cn5nc(N)c(C#N)c45)cn2)C3)cn1 [APS089]
- IC50 (Ret wt): 1.8 nM
- IC50 (RET (V804M)): 1.6 nM
- IC50 (TT Cell): 18.6 nM
- inhibitory activity against RET wild-type, mutant and/or fusion-type [1]: excellent activity

SMILES: COc1ccc(CN2C3CC2CN(c2ccc(-c4cc(OCC(C)(C)O)cn5nc(F)c(C#N)c45)cn2)C3)cn1 [APS090]
- IC50 (Ret wt): 54 nM
- IC50 (RET (V804M)): 486 nM
- IC50 (TT Cell): 31.4 nM

SMILES: COc1ccc(CN2C3CC2CN(c2ccc(-c4cc(OCC(C)(C)O)cn5nc(OC)c(C#N)c45)cn2)C3)cn1 [APS091, 6-(2-hydroxy-2-methylpropoxy)-2-methoxy-4-(6-(6-((6-methoxypyridin-3-yl)methyl)-3,6-diazabicyclo[3.1.1]heptan-3-yl)pyridin-3-yl)pyrazolo[1,5-a]pyridine-3-carbonitrile]
- IC50 (RET (V804M)): 957 nM

SMILES: CCOc1cc(-c2cnc(N3CC4CC(C3)N4Cc3ccc(OC)nc3)cn2)c2c(C#N)c(N)nn2c1 [APS092, 2-amino-6-ethoxy-4-(5-(6-((6-methoxypyridin-3-yl)methyl)-3,6-diazabicyclo[3.1.1]heptane-3-yl)pyrazin-2-yl)pyrazolo[1,5-a]pyridine-3-carbonitrile]
- IC50 (Ret wt): 4.3 nM
- IC50 (RET (V804M)): 2.7 nM
- IC50 (TT Cell): 60 nM
- inhibitory activity against RET wild-type, mutant and/or fusion-type [1]: excellent activity

SMILES: COc1ccc(CN2C3CC2CN(c2ccc(-c4cc(OCC(C)(C)O)cn5nc(NC(C)=O)c(C#N)c45)cn2)C3)cn1 [APS093]
- IC50 (Ret wt): 2890 nM
- IC50 (RET (V804M)): 1550 nM

SMILES: COc1ccc(CN2C3CC2CN(c2ccc(-c4cc(OCC(C)(C)O)cn5nc(NCCO)c(C#N)c45)cn2)C3)cn1 [APS094, 6-(2-Hydroxy-2-methylpropoxy)-2-((2-2-hydroxyethyl)amino)-4-(6-(6-((6-methoxypyridine-3-yl)methyl)-3,6-diazabicyclo[3.1.1]heptan-3-yl)pyridin-3-yl)pyrazolo[1,5-a]pyridine-3-carbonitrile]
- IC50 (Ret wt): 942 nM
- IC50 (RET (V804M)): 493 nM

SMILES: CCOc1cc(-c2ccc(N3CC4CC(C3)N4Cc3ccc(OC)nc3)nc2)c2c(C#N)c(N)nn2c1 [APS095]
- IC50 (Ret wt): < 1 nM
- IC50 (RET (V804M)): < 1 nM
- IC50 (TT Cell): 38.6 nM
- inhibitory activity against RET wild-type, mutant and/or fusion-type [1]: excellent activity

SMILES: CCOc1cc(-c2ccc(N3CC4CC(C3)N4Cc3ccc(OC)nc3)nc2)c2c(C#N)c(F)nn2c1 [APS096]
- IC50 (Ret wt): 122 nM
- IC50 (RET (V804M)): 186 nM

SMILES: COCCOc1cc(-c2ccc(N3CC4CC(C3)N4Cc3ccc(OC)nc3)nc2)c2c(C#N)c(N)nn2c1 [APS097, 2-amino-6-(2-methoxyethoxy)-4-(6-(6-((6-methoxypyridin-3-yl)methyl)-3,6-diazabicyclo[3.1.1]heptan-3-yl)pyridin-3-yl)pyrazolo[1,5-a]pyridine-3-carbonitrile]
- IC50 (Ret wt): < 1 nM
- IC50 (RET (V804M)): < 1 nM
- IC50 (TT Cell): 75.5 nM
- inhibitory activity against RET wild-type, mutant and/or fusion-type [1]: excellent activity

SMILES: COCCOc1cc(-c2ccc(N3CC4CC(C3)N4Cc3ccc(OC)nc3)nc2)c2c(C#N)c(F)nn2c1 [APS098, 2-fluoro-6-(2-methoxyethoxy)-4-(6-(6-((6-methoxypyridin-3-yl)methyl)-3,6-diazabicyclo [3.1.1]heptan-3-yl)pyridin-3-yl)pyrazolo[1,5-a]pyridine-3-carbonitrile]
- IC50 (Ret wt): 144 nM
- IC50 (RET (V804M)): 85.6 nM

SMILES: COCCOc1cc(-c2ccc(N3CC4CC(C3)N4Cc3ccc(OC)nc3)nc2)c2c(C#N)c(NC(C)=O)nn2c1 [APS103]
- IC50 (Ret wt): 261 nM
- IC50 (RET (V804M)): 155 nM

SMILES: COc1ccc(CN2C3CC2CN(c2cnc(-c4cc(OC[C@@H]5CN(C)CCO5)cn5nc(F)c(C#N)c45)cn2)C3)cn1 [APS104, 2-fluoro-4-(5-(6-((6-methoxypyridin-3-yl)methyl)-3,6-diazabicyclo[3.1.1]heptan-3-yl)pyrazin-2-yl)-6-(((S)-4-methylmorpholin-2-yl)methoxy)pyrazolo[1,5-a]pyridine-3-carbonitrile]
- IC50 (Ret wt): 6.9 nM
- IC50 (RET (V804M)): 14 nM
- inhibitory activity against RET wild-type, mutant and/or fusion-type [1]: excellent activity

SMILES: CCOc1cc(-c2ccc(N3CC4CC(C3)N4Cc3cnc(OC)c(Cl)c3)nc2)c2c(C#N)c(N)nn2c1 [APS105]
- IC50 (Ret wt): < 1 nM
- IC50 (RET (V804M)): < 1 nM
- IC50 (TT Cell): 28.1 nM
- inhibitory activity against RET wild-type, mutant and/or fusion-type [1]: excellent activity

SMILES: COc1ccc(CN2C3CC2CN(c2ccc(-c4cc(OCC(C)(C)O)cn5nc(N)c(C(N)=O)c45)cn2)C3)cn1 [APS106]
- IC50 (Ret wt): 745 nM
- IC50 (RET (V804M)): 971 nM

SMILES: COc1ccc(CN2C3CC2CN(c2cnc(-c4cc(OC[C@@H]5CN(C)CCO5)cn5nc(N)c(C#N)c45)cn2)C3)cn1 [APS107, 2-amino-4-(5-(6-((6-methoxypyridin-3-yl)methyl)-3,6-diazabicyclo[3.1.1]heptan-3-yl)pyrazin-2-yl)-6-(((S)-4-methylmorpholin-2-yl)methoxy)pyrazolo[1,5-a]pyridine-3-carbonitrile]
- IC50 (Ret wt): < 1 nM
- IC50 (RET (V804M)): < 1 nM
- IC50 (TT Cell): 16.3 nM
- inhibitory activity against RET wild-type, mutant and/or fusion-type [1]: excellent activity

SMILES: COCCOc1cc(-c2ccc(N3CC4CC(C3)N4Cc3cnc(OC)c(Cl)c3)nc2)c2c(C#N)c(N)nn2c1 [APS108, 2-amino-4-(6-(6-((5-chloro-6-methoxypyridin-3-yl)methyl)-3,6-diazabicyclo[3.1.1]heptane-3-yl)pyridin-3-yl)-6-(2-methoxyethoxy)pyrazolo[1,5-a]pyridine-3-carbonitrile]
- IC50 (Ret wt): < 1 nM
- IC50 (RET (V804M)): < 1 nM
- IC50 (TT Cell): 10.7 nM
- inhibitory activity against RET wild-type, mutant and/or fusion-type [1]: excellent activity

SMILES: COc1ccc(CN2C3CC2CN(c2ccc(-c4cc(OCC(F)F)cn5nc(N)c(C#N)c45)cn2)C3)cn1 [APS114, 2-amino-6-(2,2-difluoroethoxy)-4-(6-(6-((6-methoxypyridin-3-yl)methyl)-3,6-diazabicyclo[3.1.1]heptan-3-yl)pyridin-3-yl)pyrazolo[1,5-a]pyridine-3-carbonitrile]
- IC50 (Ret wt): 2 nM
- IC50 (RET (V804M)): < 1 nM
- inhibitory activity against RET wild-type, mutant and/or fusion-type [1]: excellent activity

SMILES: COc1ccc(CN2C3CC2CN(c2ccc(-c4cc(OC(F)F)cn5nc(N)c(C#N)c45)cn2)C3)cn1 [APS115, 2-amino-6-(difluoromethoxy)-4-(6-(6-((6-methoxypyridin-3-yl)methyl)-3,6-diazabicyclo[3.1.1]heptan-3-yl)pyridin-3-yl)pyrazolo[1,5-a]pyridine-3-carbonitrile]
- IC50 (Ret wt): 45.9 nM
- IC50 (RET (V804M)): 8.8 nM
